# From ChEMBL document CHEMBL3608278 (J Med Chem, 2015)
# Experiments:
# [1] = target: T1, Potassium voltage-gated channel subfamily A member 3 (Homo sapiens, UniProt P22001); type: cell-based, CHO-K1
# [2] = target: T1, Potassium voltage-gated channel subfamily A member 3; experiment: cell-based; parameters: species or system Blood
# [3] = target: T1, Potassium voltage-gated channel subfamily A member 3; parameters: species or system Blood
# T1 sequence (P22001 whole entry): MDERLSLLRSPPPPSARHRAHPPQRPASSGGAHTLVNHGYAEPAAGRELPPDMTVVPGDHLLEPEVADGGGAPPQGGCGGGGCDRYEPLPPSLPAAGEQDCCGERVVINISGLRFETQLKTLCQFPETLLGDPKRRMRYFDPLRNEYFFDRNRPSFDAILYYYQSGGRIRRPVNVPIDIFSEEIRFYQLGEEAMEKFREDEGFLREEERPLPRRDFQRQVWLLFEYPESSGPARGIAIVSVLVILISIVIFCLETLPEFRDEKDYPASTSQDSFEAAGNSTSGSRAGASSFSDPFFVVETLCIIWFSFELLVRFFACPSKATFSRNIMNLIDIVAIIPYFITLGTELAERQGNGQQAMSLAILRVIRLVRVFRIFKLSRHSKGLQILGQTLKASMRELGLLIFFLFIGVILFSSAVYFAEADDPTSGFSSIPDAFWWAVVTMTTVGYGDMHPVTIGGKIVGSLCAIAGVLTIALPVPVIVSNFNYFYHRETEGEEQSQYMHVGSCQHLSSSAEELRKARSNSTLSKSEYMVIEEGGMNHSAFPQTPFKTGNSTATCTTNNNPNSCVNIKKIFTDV
IC50 [1],IC50 [2],IC50 [3],SMILES
0.152 nM,0.398 nM,0.635 nM,CC[C@H](C)[C@@H]1NC(=O)[C@@H](NC(=O)[C@H](CO)NC(=O)[C@@H](N)CCCNC(=N)N)CSSC[C@@H](C(=O)O)NC(=O)[C@H]([C@@H](C)O)NC(=O)CNC(=O)[C@@H]2CSSC[C@@H]3NC(=O)[C@H](CCC(N)=O)NC(=O)[C@H](Cc4ccccc4)NC(=O)[C@H](C)NC(=O)[C@H](CCCNC(=N)N)NC(=O)[C@H](CSSC[C@H](NC(=O)[C@H](Cc4ccccc4)NC(=O)[C@H](CO)NC(=O)[C@H](CC(C)C)NC(=O)[C@H](CCCNC(=N)N)NC(=O)[C@H](Cc4ccc(O)cc4)NC(=O)[C@H](CCCCN)NC(=O)[C@H](CCSC)NC(=O)[C@H](CO)NC(=O)[C@H](Cc4cnc[nH]4)NC(=O)[C@H](CCCCN)NC3=O)C(=O)N[C@@H](CCCNC(=N)N)C(=O)N[C@@H](CCCCN)C(=O)N[C@@H]([C@@H](C)O)C(=O)N2)NC(=O)[C@H](CCCNC(=N)N)NC(=O)[C@H](CO)NC(=O)[C@H](CCCCN)NC(=O)[C@@H]2CCCN2C(=O)[C@H]([C@@H](C)CC)NC(=O)[C@H]([C@@H](C)O)NC(=O)[C@H](CC(=O)O)NC1=O
0.166 nM,0.372 nM,0.492 nM,CC[C@H](C)[C@@H]1NC(=O)[C@@H](NC(=O)[C@H](CO)NC(=O)[C@@H](N)CCCNC(=N)N)CSSC[C@@H](C(=O)O)NC(=O)[C@H]([C@@H](C)O)NC(=O)CNC(=O)[C@@H]2CSSC[C@@H]3NC(=O)[C@H](CCCNC(=N)N)NC(=O)[C@H](Cc4ccccc4)NC(=O)[C@H](C)NC(=O)[C@H]([C@@H](C)O)NC(=O)[C@H](CSSC[C@H](NC(=O)[C@H](Cc4ccccc4)NC(=O)[C@H](CO)NC(=O)[C@H](CC(C)C)NC(=O)[C@H](CCCNC(=N)N)NC(=O)[C@H](Cc4ccc(O)cc4)NC(=O)[C@H](CCCCN)NC(=O)[C@H](CCSC)NC(=O)[C@H](CO)NC(=O)[C@H](Cc4cnc[nH]4)NC(=O)[C@H](CCCCN)NC3=O)C(=O)N[C@@H](CCCNC(=N)N)C(=O)N[C@@H](CCCCN)C(=O)N[C@@H]([C@@H](C)O)C(=O)N2)NC(=O)[C@H](CCCNC(=N)N)NC(=O)[C@H](CO)NC(=O)[C@H](CCCCN)NC(=O)[C@@H]2CCCN2C(=O)[C@H]([C@@H](C)CC)NC(=O)[C@H]([C@@H](C)O)NC(=O)[C@H](CC(=O)O)NC1=O
0.104 nM,0.038 nM,0.056 nM,CC[C@H](C)[C@@H]1NC(=O)[C@@H](NC(=O)[C@H](CO)NC(=O)[C@@H](N)CCCNC(=N)N)CSSC[C@@H](C(=O)O)NC(=O)[C@H]([C@@H](C)O)NC(=O)CNC(=O)[C@@H]2CSSC[C@@H]3NC(=O)[C@H](CCC(N)=O)NC(=O)[C@H](Cc4ccccc4)NC(=O)[C@H](C)NC(=O)[C@H]([C@@H](C)O)NC(=O)[C@H](CSSC[C@H](NC(=O)[C@H](Cc4ccccc4)NC(=O)[C@H](CO)NC(=O)[C@H](CC(C)C)NC(=O)[C@H](CCCNC(=N)N)NC(=O)[C@H](Cc4ccc(O)cc4)NC(=O)[C@H](CCCCN)NC(=O)[C@H](CCSC)NC(=O)[C@H](CO)NC(=O)[C@H](Cc4cnc[nH]4)NC(=O)[C@H](CCCNC(=N)N)NC3=O)C(=O)N[C@@H](CCCNC(=N)N)C(=O)N[C@@H](CCCCN)C(=O)N[C@@H]([C@@H](C)O)C(=O)N2)NC(=O)[C@H](CCCNC(=N)N)NC(=O)[C@H](CO)NC(=O)[C@H](CCCCN)NC(=O)[C@@H]2CCCN2C(=O)[C@H]([C@@H](C)CC)NC(=O)[C@H]([C@@H](C)O)NC(=O)[C@H](CC(=O)O)NC1=O
0.095 nM,0.114 nM,0.282 nM,CC[C@H](C)[C@@H]1NC(=O)[C@@H](NC(=O)[C@H](CO)NC(=O)[C@@H](N)CCCNC(=N)N)CSSC[C@@H](C(=O)O)NC(=O)[C@H]([C@@H](C)O)NC(=O)CNC(=O)[C@@H]2CSSC[C@@H]3NC(=O)[C@H](CCC(N)=O)NC(=O)[C@H](Cc4ccccc4)NC(=O)[C@H](C)NC(=O)[C@H]([C@@H](C)O)NC(=O)[C@H](CSSC[C@H](NC(=O)[C@H](Cc4ccccc4)NC(=O)[C@H](CO)NC(=O)[C@H](CC(C)C)NC(=O)[C@H](CCCNC(=N)N)NC(=O)[C@H](Cc4ccc(O)cc4)NC(=O)[C@H](CCCCN)NC(=O)[C@H](CCSC)NC(=O)[C@H](CO)NC(=O)[C@H](CCCNC(=N)N)NC(=O)[C@H](CCCCN)NC3=O)C(=O)N[C@@H](CCCNC(=N)N)C(=O)N[C@@H](CCCCN)C(=O)N[C@@H]([C@@H](C)O)C(=O)N2)NC(=O)[C@H](CCCNC(=N)N)NC(=O)[C@H](CO)NC(=O)[C@H](CCCCN)NC(=O)[C@@H]2CCCN2C(=O)[C@H]([C@@H](C)CC)NC(=O)[C@H]([C@@H](C)O)NC(=O)[C@H](CC(=O)O)NC1=O
> 3.33 nM,25.3 nM,40.3 nM,CC[C@H](C)[C@@H]1NC(=O)[C@@H](NC(=O)[C@H](CO)NC(=O)[C@@H](N)CCCNC(=N)N)CSSC[C@@H](C(=O)O)NC(=O)[C@H]([C@@H](C)O)NC(=O)CNC(=O)[C@@H]2CSSC[C@@H]3NC(=O)[C@H](CCC(N)=O)NC(=O)[C@H](Cc4ccccc4)NC(=O)[C@H](C)NC(=O)[C@H]([C@@H](C)O)NC(=O)[C@H](CSSC[C@H](NC(=O)[C@H](Cc4ccccc4)NC(=O)[C@H](CO)NC(=O)[C@H](CC(C)C)NC(=O)[C@H](CCCNC(=N)N)NC(=O)[C@H](Cc4ccc(O)cc4)NC(=O)[C@H](CCCCN)NC(=O)[C@H](CCSC)NC(=O)[C@H](CCCNC(=N)N)NC(=O)[C@H](Cc4cnc[nH]4)NC(=O)[C@H](CCCCN)NC3=O)C(=O)N[C@@H](CCCNC(=N)N)C(=O)N[C@@H](CCCCN)C(=O)N[C@@H]([C@@H](C)O)C(=O)N2)NC(=O)[C@H](CCCNC(=N)N)NC(=O)[C@H](CO)NC(=O)[C@H](CCCCN)NC(=O)[C@@H]2CCCN2C(=O)[C@H]([C@@H](C)CC)NC(=O)[C@H]([C@@H](C)O)NC(=O)[C@H](CC(=O)O)NC1=O
0.259 nM,1.49 nM,3.08 nM,CC[C@H](C)[C@@H]1NC(=O)[C@@H](NC(=O)[C@H](CO)NC(=O)[C@@H](N)CCCNC(=N)N)CSSC[C@@H](C(=O)O)NC(=O)[C@H]([C@@H](C)O)NC(=O)CNC(=O)[C@@H]2CSSC[C@@H]3NC(=O)[C@H](CCC(N)=O)NC(=O)[C@H](Cc4ccccc4)NC(=O)[C@H](C)NC(=O)[C@H]([C@@H](C)O)NC(=O)[C@H](CSSC[C@H](NC(=O)[C@H](Cc4ccccc4)NC(=O)[C@H](CO)NC(=O)[C@H](CC(C)C)NC(=O)[C@H](CCCNC(=N)N)NC(=O)[C@H](Cc4ccc(O)cc4)NC(=O)[C@H](CCCCN)NC(=O)[C@H](CCCNC(=N)N)NC(=O)[C@H](CO)NC(=O)[C@H](Cc4cnc[nH]4)NC(=O)[C@H](CCCCN)NC3=O)C(=O)N[C@@H](CCCNC(=N)N)C(=O)N[C@@H](CCCCN)C(=O)N[C@@H]([C@@H](C)O)C(=O)N2)NC(=O)[C@H](CCCNC(=N)N)NC(=O)[C@H](CO)NC(=O)[C@H](CCCCN)NC(=O)[C@@H]2CCCN2C(=O)[C@H]([C@@H](C)CC)NC(=O)[C@H]([C@@H](C)O)NC(=O)[C@H](CC(=O)O)NC1=O
> 3.33 nM,> 100 nM,> 100 nM,CC[C@H](C)[C@@H]1NC(=O)[C@@H](NC(=O)[C@H](CO)NC(=O)[C@@H](N)CCCNC(=N)N)CSSC[C@@H](C(=O)O)NC(=O)[C@H]([C@@H](C)O)NC(=O)CNC(=O)[C@@H]2CSSC[C@@H]3NC(=O)[C@H](CCC(N)=O)NC(=O)[C@H](Cc4ccccc4)NC(=O)[C@H](C)NC(=O)[C@H]([C@@H](C)O)NC(=O)[C@H](CSSC[C@H](NC(=O)[C@H](Cc4ccccc4)NC(=O)[C@H](CO)NC(=O)[C@H](CC(C)C)NC(=O)[C@H](CCCNC(=N)N)NC(=O)[C@H](Cc4ccc(O)cc4)NC(=O)[C@H](CCCNC(=N)N)NC(=O)[C@H](CCSC)NC(=O)[C@H](CO)NC(=O)[C@H](Cc4cnc[nH]4)NC(=O)[C@H](CCCCN)NC3=O)C(=O)N[C@@H](CCCNC(=N)N)C(=O)N[C@@H](CCCCN)C(=O)N[C@@H]([C@@H](C)O)C(=O)N2)NC(=O)[C@H](CCCNC(=N)N)NC(=O)[C@H](CO)NC(=O)[C@H](CCCCN)NC(=O)[C@@H]2CCCN2C(=O)[C@H]([C@@H](C)CC)NC(=O)[C@H]([C@@H](C)O)NC(=O)[C@H](CC(=O)O)NC1=O

SMILES,IC50 [1],IC50 [2],IC50 [3]
CC[C@H](C)[C@@H]1NC(=O)[C@@H](NC(=O)[C@H](CO)NC(=O)[C@@H](N)CCCNC(=N)N)CSSC[C@@H](C(=O)O)NC(=O)[C@H]([C@@H](C)O)NC(=O)CNC(=O)[C@@H]2CSSC[C@@H]3NC(=O)[C@H](CCC(N)=O)NC(=O)[C@H](Cc4ccccc4)NC(=O)[C@H](C)NC(=O)[C@H]([C@@H](C)O)NC(=O)[C@H](CSSC[C@H](NC(=O)[C@H](Cc4ccccc4)NC(=O)[C@H](CO)NC(=O)[C@H](CC(C)C)NC(=O)[C@H](CCCNC(=N)N)NC(=O)[C@H](Cc4ccc(O)cc4)NC(=O)[C@H](CCCCN)NC(=O)[C@H](CCSC)NC(=O)[C@H](CO)NC(=O)[C@H](Cc4cnc[nH]4)NC(=O)[C@H](CCCCN)NC3=O)C(=O)N[C@@H](CCCNC(=N)N)C(=O)N[C@@H](CCCCN)C(=O)N[C@@H]([C@@H](C)O)C(=O)N2)NC(=O)[C@H](CCCNC(=N)N)NC(=O)[C@H](CO)NC(=O)[C@H](CCCCN)NC(=O)[C@H](CCCNC(=N)N)NC(=O)[C@H]([C@@H](C)CC)NC(=O)[C@H]([C@@H](C)O)NC(=O)[C@H](CC(=O)O)NC1=O,0.447 nM,0.253 nM,1.05 nM
CC[C@H](C)[C@@H]1NC(=O)[C@@H](NC(=O)[C@H](CO)NC(=O)[C@@H](N)CCCNC(=N)N)CSSC[C@@H](C(=O)O)NC(=O)[C@H]([C@@H](C)O)NC(=O)CNC(=O)[C@@H]2CSSC[C@@H]3NC(=O)[C@H](CCC(N)=O)NC(=O)[C@H](Cc4ccccc4)NC(=O)[C@H](C)NC(=O)[C@H]([C@@H](C)O)NC(=O)[C@H](CSSC[C@H](NC(=O)[C@H](Cc4ccccc4)NC(=O)[C@H](CO)NC(=O)[C@H](CC(C)C)NC(=O)[C@H](CCCNC(=N)N)NC(=O)[C@H](Cc4ccc(O)cc4)NC(=O)[C@H](CCCCN)NC(=O)[C@H](CCSC)NC(=O)[C@H](CO)NC(=O)[C@H](Cc4cnc[nH]4)NC(=O)[C@H](CCCCN)NC3=O)C(=O)N[C@@H](CCCNC(=N)N)C(=O)N[C@@H](CCCCN)C(=O)N[C@@H]([C@@H](C)O)C(=O)N2)NC(=O)[C@H](CCCNC(=N)N)NC(=O)[C@H](CCCNC(=N)N)NC(=O)[C@H](CCCCN)NC(=O)[C@@H]2CCCN2C(=O)[C@H]([C@@H](C)CC)NC(=O)[C@H]([C@@H](C)O)NC(=O)[C@H](CC(=O)O)NC1=O,0.073 nM,0.072 nM,0.129 nM
